The values below come from US8697629B2, “Modulation of intracellular signaling” (Angstrom Pharmaceuticals, Inc., priority 2010, dated 2014).

Holding throughout (assay type): cell-based
One assay deals with SKOV3 cells. Kind of assay: Boyden chamber chemotaxis/migration of SKOV3 cells. The following applies: SKOV3. As for the experimental part:
A2780 (FIG. 10a) and SKOV3 (FIG. 10b) cells were incubated with the indicated concentrations of Å6 peptide for 30 min at 37° C. Aliquots representing 6,000 cells were placed on quadruplicate, CnI-coated filters (8 μm pores) in Boyden chambers and the cells allowed to migrate overnight in response to 10 ng/ml VEGF in NIH3T3-conditioned media containing the indicated concentrations of Å6. Upon completion of migration, the apical surfaces of the membranes were wiped clean and the migrating cells on the basal surface were stained with Geimsa stain and the cells present in representative fields of the membranes counted. Data represent the averages+/−standard deviations obtained from the replicate filters. […] This provides further confirmation that CD44 is the target for the Å6 peptide.
SKOV3 cells are harvested by trypsinization and washed once with RPMI−0.5% BSA. Next, the cells are re-suspended in RPMI+0.5% BSA @ 6E4/mL (6000 cells/100 μL). The peptide is pre-treated with 500 μL of cells added to 500 μL peptide NASAPPEE (2× concentration, final conc. at 100, 10, 1, 0.1, 0.01, 0.001 uM) and the mixture incubated 30 minutes at 37° C., under 5% CO2. The Boyden chamber is assembled by: Placing in the bottom chambers: 220 μL of serum/BSA free DMEM or NIH3T3CM+10 ng/ml VEGF or NIH3T3CM+10 ng/ml VEGF+peptide. Place 8 μm filters on the top of the bottom chambers. The 8 μm filters are coated with 1 mg/ml collagen I at 4° C. overnight, washed with PBS twice, air dry before use. Add 200 μL of cells with or without peptide pretreatment to the top of Boyden chamber. Note that the peptide is in both top and bottom chambers. Cells migrate overnight at 37° C., under 5% CO2 in incubator. Next, Boyden chambers are disassembled the and filters collected. The cells on the filters after collection are treated with −20° C. methanol for 3 minutes at room temperature and stained with 30% Geimsa for 7 minutes at room temperature, and washed with water twice. The filters are mounted on slides, air dried and the cells counted.
Cell numbers were obtained by counting the cells in four fields of filters using a 40× objective. The cells migrating into the bottom chambers were also counted as follows: a) 200 μL fluid in the bottom chamber was transferred to a well of 96-well plate; b) The plate was centrifuged at 1200 rpm for 5 minutes; c) 180 μL of supernatant was removed; d) The cell pellet was resuspended with the remaining 20 μL fluid and the cells counted using a hemocytometer. […] This compares favorably to the Å6 peptide which is effective between 5 μM and 100 nM.

A further assay concerns ERK 1/2. Kind of assay: ERK 1/2 phosphorylation (T202/Y204) in SKOV3 cells, immunoblot. Particulars: basal media (RPMI/BSA). As for the experimental part: (§1) Cells were detached from their culture vessels by brief trypsinization, suspended in complete media and centrifuged at 250×g for 10 min at room temperature. The cell pellets were suspended in Dulbeco's phosphate buffered saline (DPBS) and re-centrifuged for a total of three washes. The cells were then re-suspended at 3.33E5/ml in 24 ml of either RPMI containing 0.5% BSA (Sigma Chem. Co. #A0336) (RPMI/BSA) or the conditioned media of growing NIH3T3 fibroblasts (10% FBS in DMEM) supplemented with 10 ng/ml vascular endothelial growth factor (VEGF) (CMN). The cells were then treated with or without 100 ug/ml soluble hyaluronic acid (HA; human umbilical, Calbiochem #385902) for 30 min at 37° C. under 5% CO2. Aliquots representing 2E6 cells were then plated into 10 cm culture dishes and A6 added to yield final concentrations of 0, 10, 100 and 1000 nM. The cells were cultured overnight (18 hr) at 37° C. under 5% CO2.
(§2) After 18 hr of treatment, the media were aspirated from the 10 cm dishes and saved. The plates were washed 3 times with 4 ml of ice-cold DPBS which were pooled with the reserved non-adherent cells. The non-adherent cells were centrifuged at 250×g for 10 min at 4° C., washed twice with cold DPBS, drained and lysed in 50 ul of cold RIPA buffer (ThermoScientific #89901) containing cocktails of broad spectrum phosphatase inhibitors (Calbiochem #524625; used at 2× final concentration) and protease inhibitors (Sigma #P8340) (RIPA/inh.). The 10 cm dishes were drained of remaining wash and the adherent cells lysed by scraping in 200 μL of cold RIPA/inh. For each test condition, the lysates of the non-adherent and adherent populations were combined, vortexed and then centrifuged at 14,000 rpm at 4° C. for 20 min. Aliquots of the cleared lysates were frozen at −80° C. immediately. A small aliquot was reserved for total protein analysis using a BCA Protein Assay Kit (Calbiochem #71285-3).
(§3) Samples representing 20 μg of total protein of each lysate were solubilized in the presence of 50 mM Tris pH 6.8, 10% glycerol, 2% SDS and 100 mM DTT for 5 min at 95° C. and then loaded onto 10-20% acrylamide gels (BioRad #345-0044, Tris-HCl, 1 mm, 26 well, 15 μL/well). Electrophoresis was performed using Laemli electrophoresis buffer (0.1% SDS, 25 mM Tris, 192 mM glycine) at 200 V, constant voltage, for one hour. Upon completion of electrophoresis, the proteins were transferred to Immun-Blot PVDF membranes (BioRad #162-0238) in ice-cold 20% methanol in 25 mM Tris, 192 mM glycine for 2 hr at 0.5 Amps, constant current/blotting apparatus. The membranes were then cut vertically between molecular weight markers and in half at the 64 kDa marker to generate pieces for screening of higher molecular weight proteins (e.g., FAK) and lower molecular weight proteins (e.g., MEK and GAPDH). The blots were then blocked for a minimum of 4 hrs at room temperature in 3% bovine serum albumin (Sigma A0336) in 50 mM Tris, pH 7.4, 145 mM NaCl, 0.05% Tween-20 (TTBS) containing 0.05% sodium azide.
Upon completion of the primary antibody incubation, the blots were washed three times for 10 min in TTBS and then incubated with 1/25,000 dilutions of peroxidase-conjugated donkey anti-mouse IgG (Jackson ImmunoResearch #715-035-150) or peroxidase-conjugated donkey anti-rabbit IgG (Jackson ImmunoResearch #711-035-152) in TTBS containing 3% BSA for one hour at room temperature. […]
For orientation: In western blotting, separated proteins are transferred to a membrane and probed.

For a further assay, the system named is PKCalpha. Kind of assay: PKCalpha phosphorylation in SKOV3 cells, immunoblot. As for the experimental part: as §1, §2
as §3, with “The blots were then blocked for a minimum of 4 hrs at room temperature in 3% bovine serum albumin (Sigma A0336) in 50 mM Tris, pH 7.4, 145 mM NaCl, 0.05% Tween-20 (TTBS) containing 0.05% sodium azide.” left out

In a further assay the test system is FAK. Kind of assay: FAK phosphorylation in SKOV3 cells, immunoblot and densitometry. Particulars: SKOV3, all conditions; Y397, Y576/577, Y925. How it is done: as §1, §2
(§4) Samples representing 20 μg of total protein of each lysate were solubilized in the presence of 50 mM Tris pH 6.8, 10% glycerol, 2% SDS and 100 mM DTT for 5 min at 95° C. and then loaded onto 10-20% acrylamide gels (BioRad #345-0044, Tris-HCl, 1 mm, 26 well, 15 μL/well). Electrophoresis was performed using Laemli electrophoresis buffer (0.1% SDS, 25 mM Tris, 192 mM glycine) at 200 V, constant voltage, for one hour. Upon completion of electrophoresis, the proteins were transferred to Immun-Blot PVDF membranes (BioRad #162-0238) in ice-cold 20% methanol in 25 mM Tris, 192 mM glycine for 2 hr at 0.5 Amps, constant current/blotting apparatus. […]
(§5) The integrated densities (id) of the bands of interest were measured using Image J software (NIH). […]

In the next assay the test system is MEK. Kind of assay: MEK phosphorylation (S217/221) in SKOV3 cells, immunoblot and densitometry. As for the experimental part: as §1, §2, §4, §5

Turning to “NASAPPEE (peptide which potentiates the binding of CD44 polypeptide expressing cells to hyaluronic acid (HA)) [corresponds to amino acids 120-127 of CD44]”, in the assay on SKOV3 cells, the “cell migration inhibition, lower end of effective concentration range” value amounted to 1 nM and the “cell migration inhibition, upper end of effective concentration range” value came to 100 µM.
Take “hyaluronic acid [HA, reference compound]”: the pERK/Erk entry in the assay on ERK 1/2 is “increased”. Also, the pPCKa/PKCa result in the assay on PKCalpha is given as “appears to have enhanced”. In addition, the pFAK/FAK ratios result in the assay with FAK is given as “reduced”. In the assay with MEK, the “total MEK levels” value was “appears to have decreased”. In addition, the pMEK/MEK result in the assay with MEK (under all conditions) is on record as “increased”.
